Reference: patent US10695314B2, “Antimicrobial composition containing 7,10-epoxyoctadeca-7,9-dienoic acid as active ingredient” (priority 2016, dated 2020)
≈ marks a conversion by molar mass, not a printed value. Where a SMILES comes first, the peptide text is derived from it. Bridges are numbered along the chain shown (N, C = ends). [ ]: non-standard residue; d: D form. The star is where a group is joined. Ileψ(thiazoline)Cys = CC[C@H](C)[C@H](N)C1=N[C@H](C(=O)*)CS1; dOrn = NCCC[C@@H](N)C(=O)O

Columns and labels:
[1] = system: MRSA 01ST001 (MDRSA 01ST001); test: Antimicrobial activity on solid medium (clear zone around filter paper); assay type: cell-based, Staphylococcus aureus
Experimental: (§1) First, 1.5% of potato agar was added to the YDP medium, sterilized, and then an agar plate hardened by pouring about 20 ml in a plastic Petri dish was used. MRSA 01ST001 was diluted to about 107/ml, and then about 500 μl was dispersed evenly on the agar plate.
(§2) The size of the clear zone around the filter paper shown after the culture at 37° C. for 2 to 3 days after the inoculation was measured to confirm the degree of antimicrobial activity. At this time, vancomycin 100 μg, oxacillin 100 μg, ampicillin 100 μg, streptomycin 100 μg, and penicillin 100 μg were used as control groups.
(§3) The antimicrobial activity can be confirmed with the degree showing the clear zone on the agar plate. It is judged that the larger the clear zone, the higher the antimicrobial activity. The results are illustrated in FIG. 1 and FIG. 2.
(§4) The results are illustrated in FIG. 3. The experiment was carried out in the same manner as in Example 1-2.

[2] = system: Staphylococcus aureus ATCC 29213; test: as above; assay type: cell-based; conditions: FIG. 3
Experimental: as §1, §2, §3, §4

[3] = system: S. typhimurium KCTC 2515; test: Checker board synergy evaluation (MIC, FICI); assay type: cell-based, Salmonella typhimurium; conditions: Salmonella enterica, 24 h; strain 2515; single agent
Experimental: Interactions of the selected antibiotic or 7,10-EODA of the present invention were evaluated using the checker board method (Nair et al. 2015). […] To obtain various concentrations of 7,10-EODA and antibiotic combination, a 2-fold dilution of the beta-lactam antibiotic was placed on the same plate. About 10^5 CFU/mL of microorganisms to be tested was added to the wells of each plate, and cultured for 24 hours at 37° C. without shaking. At the end of the culture period, cell growth was measured at OD600 using a spectrophotometer. Each 7,10-EODA and antibiotic combination was repeated at least three times. MIC was identified at the lowest concentration of antibiotics with growth inhibition of 90% or higher. FICAB means fractional inhibitory concentration (FIC) of drug A in the presence of drug B, and FICBA means fractional inhibitory concentration (FIC) of drug B in the presence of drug A. The fractional inhibitory concentration index (FICI) represents the sum of the FIC values of the interacting antibiotics. Interactions are based on FICI values, with FICIs less than 0.5 being categorized as synergy, FICIs 0.5 to 4 being indifferent, and FICIs greater than 4 being antagonistic. The degree of synergy was also measured based on the conventional Bliss independence model of synergy (Morones-Ramirez et al. 2013). Specifically, the degree of synergy was calculated by the following equation: S indicates degree of synergy, fAB indicates bacterial growth (optical density) when 7,10-EODA and antibiotics are used in combination, fA0 and f0B represent bacterial growth for antibiotic alone or 7,10-EODA single treatment, respectively. f00 represents bacterial growth in the absence of drug. The degree of synergy is divided into three categories based on the S value, where 0 means neutral, greater than 0 means synergism, and less than 0 means antagonism. S=(fA0/f00)(f0B/f00)−(fAB/f00) […]

[4] = system: Staphylococcus aureus ATCC 29213; test: Minimal inhibitory concentration (MIC), broth microdilution per CLSI; assay type: cell-based; conditions: Staphylococcus aureus, ATCC29213; strain 29213 (ATCC 29213); antibiotic alone; read-out: MIC
Experimental: The minimum inhibitory concentration (MIC) of antibiotics and the activity of 7,10-EODA of the present invention against Staphylococcus aureus strains were measured according to the CLSI guideline (CLSI document M100-517, 2007). Specifically, each antibiotic or 7,10-EODA was diluted 2-fold (200-0.97 μg/mL) by adding MHB (Mueller-Hinton Broth) to a 96-well microtiter plate. In the mid-exponential phase (0.5 OD600), the culture was diluted 10-fold with MHB and 0.1 mL aliquots of the diluent were added to wells containing the serially diluted test reagent and cultured at 37° C. for 12 hours. About the end of the culture period, the cell density was measured at an optical density of 600 nm (OD600) using a […].
(§5) Specifically, the minimal inhibitory concentration (MIC) was measured according to the method of Experimental Example 4 above, and the degree of inhibition (Agar diffusion analysis) (zone of inhibition; ZOI) was measured according to the method of Experimental Example 5 above.

[5] = system: Staphylococcus aureus ATCC 29213; test: Agar disk diffusion analysis, zone of inhibition (ZOI); assay type: cell-based; conditions: strain 29213
Experimental: (§6) For synergy effect screening, a 0.1 mL aliquot of MRSA or MSSA strain (5×10^5 CFU/mL) cultured in a log-phase on TSA plates was inoculated. […] A disk including DMSO alone or 7,10-EODA alone (¼×MIC) was used as a control group. The plates were cultured under conditions of […] and 24 hours, and a synergistic effect was observed when the disk periphery including both antibiotic and 7,10-EODA was at least 5 mm in zone of inhibition (ZOI).
as §5

[6] = system: MDRSA 01ST001; test: as above; assay type: cell-based, Staphylococcus aureus
Experimental: as §6
Specifically, in order to compare the antimicrobial activity of the 7,10-EODA or the antibiotic of the present invention against the MDRSA 01ST001 strain, the MDRSA 01ST001 strain was treated with the 7,10-EODA (E 100 μg) of the present invention, streptomycin (S, 100 μg), ampicillin (A, 100 μg), oxacillin (O, 100 μg), vancomycin (V, 100 μg), or penicillin (P, 100 μg), according to the method described in Experimental Example 5.
as §5

[7] = system: MRSA strain 093; test: Checker board synergy evaluation (MIC, FICI); assay type: cell-based; conditions: Staphylococcus aureus, 24 h, strain 093, single agent, read-out: MIC
Experimental: (§7) Interactions of the selected antibiotic or 7,10-EODA of the present invention were evaluated using the checker board method (Nair et al. 2015). […] To obtain various concentrations of 7,10-EODA and antibiotic combination, a 2-fold dilution of the beta-lactam antibiotic was placed on the same plate. About 10^5 CFU/mL of microorganisms to be tested was added to the wells of each plate, and cultured for 24 hours at 37° C. without shaking. At the end of the culture period, cell growth was measured at OD600 using a spectrophotometer. Each 7,10-EODA and antibiotic combination was repeated at least three times. MIC was identified at the lowest concentration of antibiotics with growth inhibition of 90% or higher. FICAB means fractional inhibitory concentration (FIC) of drug A in the presence of drug B, and FICBA means fractional inhibitory concentration (FIC) of drug B in the presence of drug A. The fractional inhibitory concentration index (FICI) represents the sum of the FIC values of the interacting antibiotics. Interactions are based on FICI values, with FICIs less than 0.5 being categorized as synergy, FICIs 0.5 to 4 being indifferent, and FICIs greater than 4 being antagonistic. The degree of synergy was also measured based on the conventional Bliss independence model of synergy (Morones-Ramirez et al. 2013). Specifically, the degree of synergy was calculated by the following equation: S indicates degree of synergy, fAB indicates bacterial growth (optical density) when 7,10-EODA and antibiotics are used in combination, fA0 and f0B represent bacterial growth for antibiotic alone or 7,10-EODA single treatment, respectively. f00 represents bacterial growth in the absence of drug. The degree of synergy is divided into three categories based on the S value, where 0 means neutral, greater than 0 means synergism, and less than 0 means antagonism. S=(fA0/f00)(f0B/f00)−(fAB/f00)
(§8) The antimicrobial activity synergistic effects according to the combination treatment of 7,10-EODA and each antibiotic on methicillin-resistant Staphylococcus aureus (MRSA) strains 085, 093, 120, 136, and 165, MDRSA 01ST001, which is a multidrug-resistant Staphylococcus aureus (MDRSA) strain, E. coli ATCC 8739, and S. typhimurium KCTC 2515 were confirmed. […] Fractional inhibitory concentration indices (FICI) values accordingly were confirmed.

[8] = system: E. coli ATCC 8739; test: Checker board synergy evaluation (MIC, FICI); assay type: cell-based; conditions: Escherichia coli, ATCC8739, 24 h; strain 8739; single agent
Experimental: as §7, §8

[9] = system: MDRSA 01ST001; test: Checker board synergy evaluation (MIC, FICI); assay type: cell-based; conditions: Staphylococcus aureus, 24 h; strain 001; single agent
Experimental: as §7, §8

[10] = system: MRSA strain 165; test: Checker board synergy evaluation (MIC, FICI); assay type: cell-based; conditions: Staphylococcus aureus, 24 h, strain 165, single agent, read-out: MIC
Experimental: as §7, §8

[11] = system: MRSA strain 085; test: Checker board synergy evaluation (MIC, FICI); assay type: cell-based; conditions: Staphylococcus aureus, 24 h, strain 085, single agent, read-out: MIC
Experimental: as §7, §8

[12] = system: MRSA strain 120; test: Checker board synergy evaluation (MIC, FICI); assay type: cell-based; conditions: Staphylococcus aureus, 24 h, strain 120, single agent, read-out: MIC
Experimental: as §7, §8

[13] = system: MRSA strain 136; test: Checker board synergy evaluation (MIC, FICI); assay type: cell-based; conditions: Staphylococcus aureus, 24 h, strain 136, single agent, read-out: MIC
Experimental: as §7, §8

[14] = system: MDRSA 01ST001; test: Minimal inhibitory concentration (MIC), broth microdilution per CLSI; conditions: Staphylococcus aureus
[15] = system: MDRSA 01ST001; test: Degree of synergy (Bliss independence model); assay type: cell-based, Staphylococcus aureus; conditions: antibiotic ¼×MIC in combination with 7,10-EODA 15.6 μg/mL (⅛×MIC), 24 hours
Experimental: as §7
(§9) The results are illustrated in FIG. 10. […]

[16] = system: MRSA 01ST018; test: Degree of synergy (Bliss independence model); assay type: cell-based, Staphylococcus aureus; conditions: antibiotic ¼×MIC in combination with 7,10-EODA 15.6 μg/mL (⅛×MIC); 24 hours; MRSA 018
Experimental: as §7, §9

Cc1onc(-c2ccccc2)c1C(=O)N[C@@H]1C(=O)N2[C@@H]1SC(C)(C)[C@@H]2C(=O)O [OXA, oxacillin]
clear zone on agar plate ([1]; 100 μg per filter paper, 37° C., 2 to 3 days, FIG. 1): no clear zone appeared
antimicrobial activity on solid medium ([1]; MDRSA 01ST001, FIG. 3): did not show an antimicrobial activity
antimicrobial activity on solid medium [2]: high antimicrobial activity
MIC [3]: 250 µg/mL
MIC [4]: 0.04 µg/mL (≈ 0.0996 µM)
ZOI without 7.10-EODA ([5]; antibiotic ½×MIC alone): 8.3 ± 0.1 mm
ZOI with 7.10-EODA ([5]; antibiotic ½×MIC with 7,10-EODA ¼×MIC): 9.60 mm
antimicrobial activity, disk diffusion ([6]; 100 μg each, FIG. 4): resistant
antimicrobial activity effect in combination with 7,10-EODA ([6]; antibiotic treated in combination with 7,10-EODA, Table 1 summary): strong antimicrobial activity effect
ZOI without 7.10-EODA ([6]; strain 001, antibiotic ½×MIC alone): 6.0 ± 0.1 mm
ZOI with 7.10-EODA ([6]; strain 001, antibiotic ½×MIC with 7,10-EODA ¼×MIC): 14.1 mm
MIC [7]: 2000 µg/mL
MIC [8]: 200 µg/mL
MIC [9]: 62.5 µg/mL
MIC [10]: 31.2 µg/mL
MIC [11]: 250 µg/mL
MIC [12]: 250 µg/mL
MIC [13]: 62.5 µg/mL
MIC [14]: 62.5 µg/mL (≈ 156 µM)

CC[C@H](C)[C@H](N)C1=N[C@H](C(=O)N[C@@H](CC(C)C)C(=O)N[C@H](CCC(=O)O)C(=O)N[C@H](C(=O)N[C@H]2CCCCNC(=O)[C@H](CC(N)=O)NC(=O)[C@@H](CC(=O)O)NC(=O)[C@H](Cc3cnc[nH]3)NC(=O)[C@@H](Cc3ccccc3)NC(=O)[C@H]([C@@H](C)CC)NC(=O)[C@@H](CCCN)NC2=O)[C@@H](C)CC)CS1 [bacitracin] ({Ileψ(thiazoline)Cys}-L[dE]IK[dOrn]I[dF]H[dD]N; lactam 4-C)
synergy index [15]: 0.8

gentamicin
synergy index [15]: 1.37
synergy index [16]: 1.32
